Results as given in patent publication US7511041B2, “Fused azole-pyrimidine derivatives” (Bayer Pharmaceuticals Corporation, priority 2002, dated 2009).
Read-outs that look alike come from different tables or passages of the source.

Tests used:
[1] = molecular target: T1, Recombinant human PI3Kγ (full length human PI3K p110γ) (Homo sapiens, UniProt P48736); test: Kinase assay of PI3Kγ (solid-phase lipid kinase assay); type: biochemical
T1 construct: full length human PI3K p110γ fused with a His6-tag at the C-terminus; His6 (C); purchased ALEXIS BIOCHEMICALS #201-055-C010; host or cells: S. frugiperda 9 insect cells
T1 sequence (P48736 whole entry, the tested form may be a part): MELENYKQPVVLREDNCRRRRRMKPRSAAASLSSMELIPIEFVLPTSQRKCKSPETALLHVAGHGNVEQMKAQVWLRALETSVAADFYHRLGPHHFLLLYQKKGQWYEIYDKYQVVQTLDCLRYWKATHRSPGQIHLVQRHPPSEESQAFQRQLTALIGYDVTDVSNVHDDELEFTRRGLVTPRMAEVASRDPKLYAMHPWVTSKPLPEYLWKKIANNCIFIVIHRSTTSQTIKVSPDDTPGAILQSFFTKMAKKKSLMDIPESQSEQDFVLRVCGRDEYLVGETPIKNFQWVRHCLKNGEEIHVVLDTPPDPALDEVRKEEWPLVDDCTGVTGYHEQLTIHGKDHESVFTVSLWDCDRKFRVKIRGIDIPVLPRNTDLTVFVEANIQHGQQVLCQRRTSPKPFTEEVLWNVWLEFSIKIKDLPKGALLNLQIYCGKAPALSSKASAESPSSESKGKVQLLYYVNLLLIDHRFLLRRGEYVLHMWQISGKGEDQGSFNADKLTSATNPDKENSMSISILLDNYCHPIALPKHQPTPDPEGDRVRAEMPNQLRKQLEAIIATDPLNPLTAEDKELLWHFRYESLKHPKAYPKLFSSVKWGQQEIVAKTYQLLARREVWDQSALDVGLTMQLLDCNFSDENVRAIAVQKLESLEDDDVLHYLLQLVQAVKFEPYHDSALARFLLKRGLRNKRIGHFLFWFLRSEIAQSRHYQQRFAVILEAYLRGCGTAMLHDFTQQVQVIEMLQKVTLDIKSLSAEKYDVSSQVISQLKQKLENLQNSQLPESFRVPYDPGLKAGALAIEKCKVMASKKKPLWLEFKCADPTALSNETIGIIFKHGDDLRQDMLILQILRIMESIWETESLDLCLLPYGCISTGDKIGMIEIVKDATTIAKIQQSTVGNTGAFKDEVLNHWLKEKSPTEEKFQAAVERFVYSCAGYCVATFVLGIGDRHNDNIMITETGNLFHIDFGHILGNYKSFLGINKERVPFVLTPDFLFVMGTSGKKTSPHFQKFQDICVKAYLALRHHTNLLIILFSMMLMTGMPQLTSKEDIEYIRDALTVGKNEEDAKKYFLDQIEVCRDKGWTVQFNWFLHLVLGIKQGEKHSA

[2] = Table 1, isozyme not given, read-out: in vitro
[3] = in vitro PI3K-γ inhibitory activity, class symbols, read-out: in vitro PI3K-gamma
[4] = in vitro PI3K-γ inhibitory activity, class symbols A-D, read-out: in vitro PI3K-gamma

Compound | IC50 [1, 2] | melting point | IC50 [1, 3] | IC50 [1, 4] | IC50 ([1]; activity class of IC50, read-out: In vitro PI3K-γ inhibitory activity)
O/C(=C\C1=Nc2cc(CN3CCOCC3)ccc2C2=NCCN12)c1cccnc1 [Example 1-111] | 100 to 500 nM | 204 °C | – | – | –
CN1CCN(c2ccc3c(c2)N=C(/C=C(\O)c2ccc4[nH]cnc4c2)N2CCN=C32)CC1.Cl [Example 1-108] | 100 to 500 nM | > 300 °C | – | – | –
Cc1cc(Br)c2c(c1)C1=NCCN1C(/C=C(\O)c1cccnc1)=N2.Cl [Example 1-45] | 100 to 500 nM | > 290 °C | – | – | –
CN1CCN(c2ccc3c(c2)N=C(/C=C(\O)c2cccnc2)N2CCN=C32)CC1.Cl [Example 1-104] | 100 to 500 nM | 288 °C | – | – | –
O/C(=C\C1=Nc2ccc(O)cc2C2=NCCN12)c1cccnc1 [Example 1-124] | 100 to 500 nM | 302 to 303 °C | – | – | –
O/C(=C\C1=Nc2ccccc2C2=NCCN12)c1ccoc1 [Example 1-145] | 100 to 500 nM | 155 to 156 °C | – | – | –
CN1CCN(c2ccc3c(c2)N=C(/C=C(\O)c2ccc4[nH]cnc4c2)N2CCN=C32)CC1 [Example 1-107] | < 100 nM | 207 °C | – | – | –
O/C(=C\C1=Nc2c(OCC3CC3)cccc2C2=NCCN12)c1cccnc1 [Example 1-88] | 100 to 500 nM | 203 °C (dec.) | – | – | –
O/C(=C\C1=Nc2cc(CN3CCOCC3)ccc2C2=NCCN12)c1ccc2[nH]cnc2c1 [Example 1-115] | 100 to 500 nM | 219 °C | – | – | –
CC(C)(C)OC(=O)COc1cccc2c1N=C(/C=C(\O)c1cccnc1)N1CCN=C21.Cl [Example 1-90] | < 100 nM | 222 to 223 °C | – | – | –
Cl.O/C(=C\C1=Nc2c(O)cccc2C2=NCCN12)c1cccnc1 [Example 1-83] | 100 to 500 nM | > 250 °C | – | – | –
COc1c(OCC(=O)NCc2ccc(F)cc2)ccc2c1N=C(/C=C(\O)c1cccnc1)N1CCN=C21.Cl [Example 1-31] | 100 to 500 nM | 230 to 231 °C | – | – | –
O/C(=C\C1=Nc2cc(N3CCOCC3)ccc2C2=NCCN12)c1ccc2[nH]cnc2c1 [Example 1-100] | < 100 nM | 232 °C | – | – | –
COc1c(C)ccc2c1N=C(/C=C(\O)c1ccc3[nH]cnc3c1)N1CCN=C21 [Example 1-34] | < 100 nM | > 285 °C | – | – | –
COc1ccc(/C(O)=C/C2=Nc3ccccc3C3=NCCN23)cc1 [Example 1-169] | > 2000 nM | 212 to 214 °C | – | – | –
O=[N+]([O-])c1cccc(/C(O)=C/C2=Nc3ccccc3C3=NCCN23)c1 [Example 1-167] | > 2000 nM | 276 °C | – | – | –
Cl.NCC(=O)Oc1ccc2c(c1)C1=NCCN1C(/C=C(\O)c1cccnc1)=N2 [Example 1-128] | < 100 nM | > 300 °C | – | – | –
COc1c(OCC(=O)N2CCOCC2)ccc2c1N=C(/C=C(\O)c1cccnc1)N1CCN=C21 [Example 1-29] | < 100 nM | 235 °C | – | – | –
O=[N+]([O-])c1ccc2c(c1)C1=NCCN1C(/C=C(\O)c1cccnc1)=N2 [Example 1-192] | 500 to 2000 nM | 306 °C | – | – | –
CC(=O)Nc1ccc(/C(O)=C/C2=Nc3cc(N4CCN(C)CC4)ccc3C3=NCCN23)cn1 [Example 1-105] | 100 to 500 nM | 292 °C (dec.) | – | – | –
COc1c(OC(C)C)ccc2c1N=C(/C=C(\O)c1cccnc1)N1CCN=C21 [Example 1-14] | < 100 nM | 252 to 253 °C | – | – | –
CC(=O)Nc1cccc(C(=O)NC2=Nc3ccccc3C3=NCCN23)c1.O=C(O)C(F)(F)F [Example 2-262] | – | 253 °C (dec.) | – | > 2000 nM | –
OCCCOc1cccc2c1N=C(/C=C(\O)c1cccnc1)N1CCN=C21 [Example 1-92] | < 100 nM | 203 to 205 °C | – | – | –
CCC/C(O)=C/C1=Nc2ccccc2C2=NCCN12 [Example 1-182] | > 2000 nM | 113 °C | – | – | –
Cl.O/C(=C\C1=Nc2ccccc2C2=NCCN12)c1nccs1 [Example 1-155] | 100 to 500 nM | > 300 °C | – | – | –
COc1cc2c(cc1OC)C1=NCCN1C(/C=C(\O)c1ccc(Cl)nc1)=N2 [Example 1-55] | 100 to 500 nM | 283 °C | – | – | –

Further lines, results first:

IC50 [1, 2] | melting point | IC50 [1, 3] | IC50 [1, 4] | IC50 ([1]; activity class of IC50, read-out: In vitro PI3K-γ inhibitory activity) | Compound
– | 288 °C | < 100 nM | – | – | Cl.O=C(NC1=Nc2c(F)cccc2C2=NCCN12)c1cccnc1 [Example 2-100]
– | 201 to 203 °C (dec.) | – | 500 to 2000 nM | – | O=C(NC1=Nc2ccccc2C2=NCCN12)c1ccccc1 [Example 2-214]
– | 216 to 218 °C | – | > 2000 nM | – | COc1c(C)cc(C(=O)NC2=Nc3ccccc3C3=NCCN23)cc1C [Example 2-220]
– | > 290 °C | 100 to 500 nM | – | – | Cc1cc(Br)c2c(c1)C1=NCCN1C(NC(=O)c1ccc3[nH]cnc3c1)=N2 [Example 2-75]
– | 127 °C | < 100 nM | – | – | O=C(NC1=Nc2cc(OCCCO)ccc2C2=NCCN12)c1cccnc1 [Example 2-199]
– | 207 to 208 °C | 100 to 500 nM | – | – | CCn1nc(C)cc1C(=O)NC1=Nc2ccccc2C2=NCCN12 [Example 2-191]
– | 232 °C | 100 to 500 nM | – | – | CCn1nc(C)cc1C(=O)NC1=Nc2cc(N3CCOCC3)ccc2C2=NCCN12 [Example 2-18]
– | 244 to 245 °C | – | > 2000 nM | – | COc1ccc(C(=O)NC2=Nc3ccccc3C3=NCCN23)c(OC)n1 [Example 2-286]
– | 254 °C | – | 100 to 500 nM | – | O=C(NC1=Nc2cc(Cl)ccc2C2=NCCN12)c1cccnc1 [Example 2-353]
– | 210 to 211 °C | – | > 2000 nM | – | O=C(NC1=Nc2ccccc2C2=NCCN12)C(F)(F)C(F)(F)F [Example 2-333]
– | 275 °C (dec.) | 100 to 500 nM | – | – | COc1cc(OC)c2c(c1)C1=NCCN1C(NC(=O)c1cccnc1)=N2.Cl [Example 2-69]
– | 310 °C (dec.) | < 100 nM | – | – | Cl.O=C(NC1=Nc2ccccc2C2=NCCN12)c1cccs1 [Example 2-179]
– | 273 °C (dec.) | < 100 nM | – | – | O=C(NC1=Nc2ccccc2C2=NCCN12)c1cncc(O)c1 [Example 2-138]
– | 249 °C | 100 to 500 nM | – | – | CC(=O)Nc1ccc(C(=O)NC2=Nc3cc(N4CCOCC4)ccc3C3=NCCN23)cc1.Cl [Example 2-9]
– | 218 to 222 °C | – | > 2000 nM | – | CN1CCN(c2ccc(C(=O)NC3=Nc4ccccc4C4=NCCN34)cc2)CC1 [Example 2-261]
– | 272 °C | – | > 2000 nM | – | CN(C)c1ccc2c(c1)C1=NCCN1C(NC(=O)c1cccs1)=N2 [Example 2-346]
– | > 300 °C | – | < 100 nM | – | Cl.O=C(NC1=Nc2ccc(O)cc2C2=NCCN12)c1cccnc1 [Example 2-211]
– | 248 °C | 100 to 500 nM | – | – | COc1cc2c(cc1OC)C1=NCCN1C(NC(=O)c1cccs1)=N2 [Example 2-62]
– | 248 to 249 °C | 100 to 500 nM | – | – | Cl.O=C(NC1=Nc2ccccc2C2=NCCN12)c1cc2cccnc2nc1C(F)(F)F [Example 2-176]

IC50 [1, 2] | melting point | IC50 [1, 3] | IC50 [1, 4] | IC50 ([1]; activity class of IC50, read-out: In vitro PI3K-γ inhibitory activity) | Compound
– | 198 to 199 °C | – | 500 to 2000 nM | – | COc1ncccc1C(=O)NC1=Nc2ccccc2C2=NCCN12 [Example 2-285]
– | 128 °C | – | – | > 2000 nM | O/C(=C\c1nc2ccccc2c2nccn12)c1cccs1 [Example 3-1, (Z)-2-Imidazo[1,2-c]quinazolin-5-yl-1-(2-thienyl)ethenol]
– | 296 °C | < 100 nM | – | – | COc1cccc2c1N=C(NC(=O)c1ccc(N)nc1)N1CCN=C21.Cl [Example 2-123]
– | 232 °C | – | > 2000 nM | – | O=C(NC1=Nc2ccc(Br)cc2C2=NCCN12)c1cccs1 [Example 2-351]
– | 249 °C | 100 to 500 nM | – | – | Cl.O=C(NC1=Nc2cccc(Cl)c2C2=NCCN12)c1cccnc1 [Example 2-98]
– | 288 °C | < 100 nM | – | – | COc1ccc2c(c1)C1=NCCN1C(NC(=O)c1ccc3[nH]cnc3c1)=N2.Cl [Example 2-94]
– | 224 to 225 °C | – | > 2000 nM | – | CCC(=O)NC1=Nc2cc(OC)c(OC)cc2C2=NCCN12 [Example 2-344]
– | 328 °C | 100 to 500 nM | – | – | Cl.O=C(NC1=Nc2cc(Cl)ccc2C2=NCCN12)c1cccs1 [Example 2-41]
– | 286 to 287 °C | – | > 2000 nM | – | O=C(NC1=Nc2ccccc2C2=NCCN12)c1ccc([N+](=O)[O-])s1 [Example 2-303]
– | 256 °C | 100 to 500 nM | – | – | COc1cc2c(cc1OC)C1=NCCN1C(NC(=O)c1ccc(N)nc1)=N2.Cl [Example 2-56]
– | 198 °C (dec.) | – | > 2000 nM | – | O=C(NC1=Nc2ccccc2C2=NCCN12)c1ccc(Cl)s1 [Example 2-301]
– | 280 to 281 °C | 100 to 500 nM | – | – | Cc1noc(C)c1C(=O)NC1=Nc2ccccc2C2=NCCN12.Cl [Example 2-187]
– | 244 °C | 100 to 500 nM | – | – | Cc1cccc2c1N=C(NC(=O)c1cccnc1)N1CCN=C21 [Example 2-107]
– | 246 to 247 °C | – | 100 to 500 nM | – | O=C(NC1=Nc2ccccc2C2=NCCN12)c1ccc(Cl)nc1 [Example 2-291]
– | 209 °C | – | 100 to 500 nM | – | N#CCOc1ccc2c(c1)C1=NCCN1C(NC(=O)c1cccnc1)=N2 [Example 2-213]
– | 289 °C (dec.) | 100 to 500 nM | – | – | COc1cc2c(cc1Br)C1=NCCN1C(NC(=O)c1cccnc1)=N2.Cl [Example 2-67]
– | 210 °C (dec.) | < 100 nM | – | – | COc1cc2c(c(OC)c1C)N=C(NC(=O)c1cccnc1C)N1CCN=C21 [Example 2-77]
– | 192 to 193 °C | – | 500 to 2000 nM | – | Cc1ccc(C(=O)NC2=Nc3ccccc3C3=NCCN23)s1 [Example 2-302]
